Data from the supplement of paper PMC10307832.

Tests used:
Experiment in all cases: relative viability (nuclei count vs DMSO), 5 days (fraction); higher = more cells survive
[1] = tested on: NCI-H1975
How it was run: (§1)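 For relative viability, nuclei counts in treated wells were divided by those in vehicle wells. Lung cancer cell lines had been pin-tool dosed in 1536-well plates the day after seeding and cultured for 5 days, then fixed and stained in one step (final 0.05% Triton X-100, 1% formaldehyde, 1 ug/ml Hoechst) and imaged at 4×. Doses were one drug alone or a fixed anchor-drug dose plus five library-drug doses (not always all listed) in √10 steps, and values are duplicate-plate medians.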

[2] = tested on: NCI-H1755
How it was run: as §1

[3] = tested on: NCI-H1355
How it was run: as §1

[4] = tested on: NCI-H1437
How it was run: as §1

[5] = tested on: NCI-H441
How it was run: as §1

[6] = tested on: EKVX
How it was run: as §1

[7] = tested on: NCI-H1734
How it was run: as §1

[8] = tested on: LOU-NH91
How it was run: as §1

[9] = tested on: NCI-H1395
How it was run: as §1

[10] = tested on: NCI-H838
How it was run: as §1

[11] = tested on: NCI-H460
How it was run: as §1

[12] = tested on: NCI-H2023
How it was run: as §1

[13] = tested on: LU99A
How it was run: as §1

[14] = tested on: BEN
How it was run: as §1

[15] = tested on: NCI-H358
How it was run: as §1

[16] = tested on: HCC-366
How it was run: as §1

[17] = tested on: NCI-H1563
How it was run: as §1

[18] = tested on: CAL-12T
How it was run: as §1

[19] = tested on: NCI-H1651
How it was run: as §1

[20] = tested on: HCC-44
How it was run: as §1

[21] = tested on: NCI-H2085
How it was run: as §1

NC(=O)Nc1cc(-c2cccc(F)c2)sc1C(=O)N[C@H]1CCCNC1 [AZD7762] + C[C@]1(O)C[C@@H](c2nc(-c3ccc4ccc(-c5ccccc5)nc4c3)c3c(N)nccn32)C1 [Linsitinib] (partner 1 µM)
relative viability ([1]; first compound 0.01 µM): 1.07
relative viability ([1]; first compound 0.03162 µM): 0.888
relative viability ([1]; first compound 0.1 µM): 0.881
relative viability ([1]; first compound 0.3162 µM): 0.681
relative viability ([1]; first compound 1 µM): 0.482
relative viability ([2]; first compound 0.01 µM): 1.03
relative viability ([2]; first compound 0.03162 µM): 1.06
relative viability ([2]; first compound 0.1 µM): 1.06
relative viability ([2]; first compound 0.3162 µM): 1.03
relative viability ([2]; first compound 1 µM): 0.646
relative viability ([3]; first compound 0.01 µM): 0.805
relative viability ([3]; first compound 0.03162 µM): 0.811
relative viability ([3]; first compound 0.1 µM): 0.766
relative viability ([3]; first compound 0.3162 µM): 0.859
relative viability ([3]; first compound 1 µM): 0.762
relative viability ([4]; first compound 0.01 µM): 1.06
relative viability ([4]; first compound 0.03162 µM): 0.991
relative viability ([4]; first compound 0.1 µM): 0.982
relative viability ([4]; first compound 0.3162 µM): 1.04
relative viability ([4]; first compound 1 µM): 0.86
relative viability ([5]; first compound 0.01 µM): 0.656
relative viability ([5]; first compound 0.03162 µM): 0.744
relative viability ([5]; first compound 0.1 µM): 0.657
relative viability ([5]; first compound 0.3162 µM): 0.823
relative viability ([5]; first compound 1 µM): 0.67
relative viability ([6]; first compound 0.01 µM): 0.972
relative viability ([6]; first compound 0.03162 µM): 0.971
relative viability ([6]; first compound 0.1 µM): 0.844
relative viability ([6]; first compound 0.3162 µM): 0.873
relative viability ([6]; first compound 1 µM): 0.507
relative viability ([7]; first compound 0.01 µM): 0.885
relative viability ([7]; first compound 0.03162 µM): 0.887
relative viability ([7]; first compound 0.1 µM): 1.05
relative viability ([7]; first compound 0.3162 µM): 0.869
relative viability ([7]; first compound 1 µM): 0.734
relative viability ([8]; first compound 0.01 µM): 1.01
relative viability ([8]; first compound 0.03162 µM): 0.966
relative viability ([8]; first compound 0.1 µM): 0.933
relative viability ([8]; first compound 0.3162 µM): 0.794
relative viability ([8]; first compound 1 µM): 0.57
relative viability ([9]; first compound 0.01 µM): 1.16
relative viability ([9]; first compound 0.03162 µM): 1.09
relative viability ([9]; first compound 0.1 µM): 0.966
relative viability ([9]; first compound 0.3162 µM): 0.579
relative viability ([9]; first compound 1 µM): 0.481
relative viability ([10]; first compound 0.01 µM): 0.982
relative viability ([10]; first compound 0.03162 µM): 1.01
relative viability ([10]; first compound 0.1 µM): 0.942
relative viability ([10]; first compound 0.3162 µM): 0.978
relative viability ([10]; first compound 1 µM): 0.627
relative viability ([11]; first compound 0.01 µM): 0.975
relative viability ([11]; first compound 0.03162 µM): 0.727
relative viability ([11]; first compound 0.1 µM): 0.719
relative viability ([11]; first compound 0.3162 µM): 0.135
relative viability ([11]; first compound 1 µM): 0.0126
relative viability ([12]; first compound 0.01 µM): 0.619
relative viability ([12]; first compound 0.03162 µM): 0.485
relative viability ([12]; first compound 0.1 µM): 0.387
relative viability ([12]; first compound 0.3162 µM): 0.21
relative viability ([12]; first compound 1 µM): 0.0864
relative viability ([13]; first compound 0.01 µM): 0.612
relative viability ([13]; first compound 0.03162 µM): 0.568
relative viability ([13]; first compound 0.1 µM): 0.526
relative viability ([13]; first compound 0.3162 µM): 0.432
relative viability ([13]; first compound 1 µM): 0.397
relative viability ([14]; first compound 0.01 µM): 1.04
relative viability ([14]; first compound 0.03162 µM): 0.892
relative viability ([14]; first compound 0.1 µM): 0.797
relative viability ([14]; first compound 0.3162 µM): 0.829
relative viability ([14]; first compound 1 µM): 0.643
relative viability ([15]; first compound 0.01 µM): 0.695
relative viability ([15]; first compound 0.03162 µM): 0.745
relative viability ([15]; first compound 0.1 µM): 0.711
relative viability ([15]; first compound 0.3162 µM): 0.617
relative viability ([15]; first compound 1 µM): 0.42
relative viability ([16]; first compound 0.01 µM): 0.587
relative viability ([16]; first compound 0.03162 µM): 0.666
relative viability ([16]; first compound 0.1 µM): 0.607
relative viability ([16]; first compound 0.3162 µM): 0.255
relative viability ([16]; first compound 1 µM): 0.0442
relative viability ([17]; first compound 0.01 µM): 1.25
relative viability ([17]; first compound 0.03162 µM): 1.25
relative viability ([17]; first compound 0.1 µM): 1.46
relative viability ([17]; first compound 0.3162 µM): 1.12
relative viability ([17]; first compound 1 µM): 0.953
relative viability ([18]; first compound 0.01 µM): 0.91
relative viability ([18]; first compound 0.03162 µM): 0.725
relative viability ([18]; first compound 0.1 µM): 0.984
relative viability ([18]; first compound 0.3162 µM): 0.844
relative viability ([18]; first compound 1 µM): 0.288
relative viability ([19]; first compound 0.01 µM): 1.03
relative viability ([19]; first compound 0.03162 µM): 0.904
relative viability ([19]; first compound 0.1 µM): 0.902
relative viability ([19]; first compound 0.3162 µM): 0.702
relative viability ([19]; first compound 1 µM): 0.358
relative viability ([20]; first compound 0.01 µM): 0.739
relative viability ([20]; first compound 0.03162 µM): 0.679
relative viability ([20]; first compound 0.1 µM): 0.724
relative viability ([20]; first compound 0.3162 µM): 0.647
relative viability ([20]; first compound 1 µM): 0.861
relative viability ([21]; first compound 0.01 µM): 1.03
relative viability ([21]; first compound 0.03162 µM): 0.885
relative viability ([21]; first compound 0.1 µM): 0.874
relative viability ([21]; first compound 0.3162 µM): 0.948
relative viability ([21]; first compound 1 µM): 0.693
